From paper PMC4467547 (Journal of Medicinal Chemistry, 2015)
Positions count from the first letter of the chain named.

Key:
WT HDAC8 (Zn2+) = target: T1, WT HDAC8 (Zn2+) (Homo sapiens, UniProt Q9BY41); assay: HDAC8 time-course inhibition; assay type: biochemical
T1 sequence (Q9BY41 1-377): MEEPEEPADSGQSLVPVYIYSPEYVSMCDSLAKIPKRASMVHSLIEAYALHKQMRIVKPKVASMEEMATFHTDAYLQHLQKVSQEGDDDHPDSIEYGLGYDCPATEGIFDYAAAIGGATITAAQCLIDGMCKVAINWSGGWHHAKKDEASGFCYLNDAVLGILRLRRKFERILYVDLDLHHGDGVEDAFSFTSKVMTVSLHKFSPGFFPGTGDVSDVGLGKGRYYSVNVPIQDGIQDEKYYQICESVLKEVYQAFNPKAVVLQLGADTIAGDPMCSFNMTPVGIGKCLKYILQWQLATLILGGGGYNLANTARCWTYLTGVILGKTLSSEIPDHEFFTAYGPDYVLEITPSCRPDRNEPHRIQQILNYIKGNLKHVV

C153A HDAC8 = target: T2, C153A HDAC8 (Homo sapiens, UniProt Q9BY41, C153A); assay: HDAC8 time-course inhibition; conditions: SAHA 0-8 μM, SAHA-OBn 0-10 μM (Figure S8)
T2 sequence (Q9BY41 1-377 C153A): T1 sequence (Q9BY41 1-377) with C153A

human plasma stability = assay type: in vitro ADME; conditions: 1 h, 37 °C
[1] = system: tubulin acetylation in HH cells; assay: western blot analysis of tubulin acetylation; assay type: cell-based; conditions: 6 and 20 μM, 4 h
[2] = aqueous stability under simulated physiological conditions; assay type: physicochemical; conditions: 50 mM HEPES, pH 7.4, 37 °C, 24 h
reactivity with GSH = assay type: physicochemical; conditions: GSH 2 mM, 2 equiv, 50 mM HEPES pH 7.4, 2 h at 37 °C
[3] = stability in the presence of assay components BSA or trypsin; assay type: physicochemical; conditions: BSA (5 mg/mL) or trypsin (5 mg/mL), 37 °C, 2 h; data not shown
HH (CTCL) cells = assay: MTS cell proliferation assay; assay type: cell-based
[4] = system: tubulin acetylation in Jurkat cells; assay: western blot analysis of tubulin acetylation; assay type: cell-based; conditions: 6 and 20 μM, 4 h

| SMILES | inhibition of HDAC8 (WT HDAC8 (Zn2+)) | inhibition of C153A HDAC8 (in words) (C153A HDAC8) | percent parent compound remaining (human plasma stability) | maximal rate constant for inactivation (WT HDAC8 (Zn2+); at saturating SAHA-TAP) | time of activity loss on preincubation of enzyme with inhibitor (WT HDAC8 (Zn2+); preincubation, data not shown) | tubulin acetylation (western blot) [1] | stable to hydrolysis in the absence of thiols [2] | reactivity with GSH (in words) (reactivity with GSH) | stable in the presence of assay components [3] | less potent than SAHA in cells (HH (CTCL) cells; HH and Jurkat cells) | tubulin acetylation (western blot) [4] | inhibition of HDAC8 activity (in words) (WT HDAC8 (Zn2+); inhibitor 2–10 μM) | effect on cell proliferation (in words) (HH (CTCL) cells; all cells studied (HH, Jurkat, NIH/3T3)) |
| --- | --- | --- | --- | --- | --- | --- | --- | --- | --- | --- | --- | --- | --- |
| O=C(CCCCCCC(=O)Nc1ccccc1)NO [SAHA, suberoylanilide hydroxamic acid, reference compound] | > 90% | susceptible to inhibition | ~60% | – | – | – | – | – | – | – | – | – | – |
| CC1=C(C)C(=O)C(CONC(=O)CCCCCCC(=O)Nc2ccccc2)=C(C)C1=O [SAHA-TAP] | – | – | Approximately 72% | 0.0013 s^–1 | ≤ 0.5 h | increased tubulin acetylation | > 97% | reacts rapidly with GSH | > 95% | 3–4 fold | increased tubulin acetylation | – | – |
| O=C(CCCCCCC(=O)Nc1ccccc1)NOCc1ccccc1 [SAHA-OBn] | – | – | – | – | – | – | – | no change in the HPLC chromatogram | – | – | – | does not inhibit | unaffected |
